Key:
[1] = molecular target: Vascular endothelial growth factor receptor 3 (Homo sapiens) (UniProt P35916); conditions: Compound concentration 1000.0 nM
[2] = molecular target: Phosphatidylinositol 4,5-bisphosphate 3-kinase catalytic subunit gamma isoform (Homo sapiens) (UniProt P48736); conditions: Compound concentration 1000.0 nM
[3] = molecular target: Mitogen-activated protein kinase kinase kinase 10 (Homo sapiens) (UniProt Q02779); conditions: Compound concentration 1000.0 nM
[4] = tested on: Phosphatidylinositol 4,5-bisphosphate 3-kinase catalytic subunit alpha isoform (Homo sapiens), P42336 [E542K]; conditions: Compound concentration 1000.0 nM
[5] = tested on: Epidermal growth factor receptor (Homo sapiens), P00533 [UNDEFINED MUTATION]; conditions: Compound concentration 1000.0 nM
[6] = molecular target: T1, Muscarinic acetylcholine receptor M1 (Homo sapiens) (UniProt P11229); conditions: Compound concentration 10.0 uM
T1 sequence (whole entry): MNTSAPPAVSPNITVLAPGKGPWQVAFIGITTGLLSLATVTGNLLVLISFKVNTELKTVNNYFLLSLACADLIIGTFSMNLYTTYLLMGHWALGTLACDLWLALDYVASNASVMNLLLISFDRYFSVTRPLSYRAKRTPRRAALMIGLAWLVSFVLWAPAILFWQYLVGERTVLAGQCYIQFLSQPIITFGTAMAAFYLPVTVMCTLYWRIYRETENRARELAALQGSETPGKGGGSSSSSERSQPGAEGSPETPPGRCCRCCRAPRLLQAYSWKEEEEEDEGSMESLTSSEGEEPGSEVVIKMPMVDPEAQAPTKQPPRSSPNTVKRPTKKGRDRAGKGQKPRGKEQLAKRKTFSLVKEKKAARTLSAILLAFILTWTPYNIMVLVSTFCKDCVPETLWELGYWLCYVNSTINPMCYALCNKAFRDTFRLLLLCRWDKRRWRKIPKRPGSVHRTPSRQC

[7] = molecular target: Serine/threonine-protein kinase RIO3 (Homo sapiens) (UniProt O14730); conditions: Compound concentration 1000.0 nM
[8] = molecular target: MAP/microtubule affinity-regulating kinase 3 (Homo sapiens) (UniProt P27448); conditions: Compound concentration 1000.0 nM
[9] = molecular target: Insulin-like growth factor 1 receptor (Homo sapiens) (UniProt P08069); conditions: Compound concentration 1000.0 nM
[10] = tested on: Phosphatidylinositol 4,5-bisphosphate 3-kinase catalytic subunit alpha isoform (Homo sapiens), P42336 [M1043I]; conditions: Compound concentration 1000.0 nM
Chain of Phosphatidylinositol 4,5-bisphosphate 3-kinase catalytic subunit alpha isoform (Homo sapiens), P42336 [M1043I] (P42336 whole entry M1043I, canonical isoform): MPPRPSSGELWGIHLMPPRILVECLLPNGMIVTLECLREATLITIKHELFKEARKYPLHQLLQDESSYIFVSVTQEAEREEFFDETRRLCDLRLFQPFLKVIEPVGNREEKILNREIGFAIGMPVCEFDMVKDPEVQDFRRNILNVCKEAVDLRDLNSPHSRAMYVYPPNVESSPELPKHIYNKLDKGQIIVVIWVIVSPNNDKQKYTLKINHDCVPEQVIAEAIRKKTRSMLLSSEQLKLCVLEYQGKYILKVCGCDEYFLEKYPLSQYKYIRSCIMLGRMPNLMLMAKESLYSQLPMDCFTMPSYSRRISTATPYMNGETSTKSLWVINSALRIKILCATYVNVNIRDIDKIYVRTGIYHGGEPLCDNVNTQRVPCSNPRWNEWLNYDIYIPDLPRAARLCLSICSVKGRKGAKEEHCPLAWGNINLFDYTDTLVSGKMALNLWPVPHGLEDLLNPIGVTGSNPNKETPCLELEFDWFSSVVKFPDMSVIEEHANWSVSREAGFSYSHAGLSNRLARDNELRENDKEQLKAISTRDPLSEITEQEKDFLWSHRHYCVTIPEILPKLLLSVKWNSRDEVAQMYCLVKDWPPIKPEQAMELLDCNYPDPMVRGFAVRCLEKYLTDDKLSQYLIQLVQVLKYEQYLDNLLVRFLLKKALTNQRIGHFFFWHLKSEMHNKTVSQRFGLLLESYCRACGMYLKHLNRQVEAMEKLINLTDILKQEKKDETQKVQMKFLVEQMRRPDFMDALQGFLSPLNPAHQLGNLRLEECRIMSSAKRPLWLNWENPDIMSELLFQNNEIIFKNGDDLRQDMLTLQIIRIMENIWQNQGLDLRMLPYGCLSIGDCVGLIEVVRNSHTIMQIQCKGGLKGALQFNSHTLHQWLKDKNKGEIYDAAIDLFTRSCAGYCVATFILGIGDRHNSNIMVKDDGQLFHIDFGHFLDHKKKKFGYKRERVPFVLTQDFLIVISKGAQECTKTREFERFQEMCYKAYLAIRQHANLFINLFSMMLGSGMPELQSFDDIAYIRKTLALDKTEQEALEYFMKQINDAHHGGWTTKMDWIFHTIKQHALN

[11] = tested on: Hepatocyte growth factor receptor (Homo sapiens), P08581 [M1250T]; conditions: Compound concentration 1000.0 nM
[12] = molecular target: Tyrosine-protein kinase Tec (Homo sapiens) (UniProt P42680); conditions: Compound concentration 1000.0 nM
Chain of Tyrosine-protein kinase Tec (Homo sapiens) (P42680 whole entry): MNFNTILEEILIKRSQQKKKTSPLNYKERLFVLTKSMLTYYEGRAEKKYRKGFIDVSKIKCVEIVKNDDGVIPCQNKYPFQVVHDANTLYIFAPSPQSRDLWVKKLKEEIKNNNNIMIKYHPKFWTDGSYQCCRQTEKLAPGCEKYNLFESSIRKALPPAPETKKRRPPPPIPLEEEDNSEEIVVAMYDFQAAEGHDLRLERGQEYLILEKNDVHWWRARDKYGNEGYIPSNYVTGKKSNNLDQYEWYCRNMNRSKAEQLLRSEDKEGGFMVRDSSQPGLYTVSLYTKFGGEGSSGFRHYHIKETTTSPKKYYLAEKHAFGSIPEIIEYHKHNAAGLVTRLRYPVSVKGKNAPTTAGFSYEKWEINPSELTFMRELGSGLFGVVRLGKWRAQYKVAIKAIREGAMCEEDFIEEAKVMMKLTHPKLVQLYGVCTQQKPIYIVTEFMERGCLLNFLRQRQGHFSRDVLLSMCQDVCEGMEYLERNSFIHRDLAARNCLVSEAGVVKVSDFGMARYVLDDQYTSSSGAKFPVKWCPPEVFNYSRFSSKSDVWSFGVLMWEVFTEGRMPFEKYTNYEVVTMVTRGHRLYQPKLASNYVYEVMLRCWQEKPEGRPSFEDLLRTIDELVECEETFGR

[13] = molecular target: Serine/threonine-protein kinase DCLK1 (Homo sapiens) (UniProt O15075); conditions: Compound concentration 1000.0 nM
Chain of Serine/threonine-protein kinase DCLK1 (Homo sapiens) (O15075 whole entry): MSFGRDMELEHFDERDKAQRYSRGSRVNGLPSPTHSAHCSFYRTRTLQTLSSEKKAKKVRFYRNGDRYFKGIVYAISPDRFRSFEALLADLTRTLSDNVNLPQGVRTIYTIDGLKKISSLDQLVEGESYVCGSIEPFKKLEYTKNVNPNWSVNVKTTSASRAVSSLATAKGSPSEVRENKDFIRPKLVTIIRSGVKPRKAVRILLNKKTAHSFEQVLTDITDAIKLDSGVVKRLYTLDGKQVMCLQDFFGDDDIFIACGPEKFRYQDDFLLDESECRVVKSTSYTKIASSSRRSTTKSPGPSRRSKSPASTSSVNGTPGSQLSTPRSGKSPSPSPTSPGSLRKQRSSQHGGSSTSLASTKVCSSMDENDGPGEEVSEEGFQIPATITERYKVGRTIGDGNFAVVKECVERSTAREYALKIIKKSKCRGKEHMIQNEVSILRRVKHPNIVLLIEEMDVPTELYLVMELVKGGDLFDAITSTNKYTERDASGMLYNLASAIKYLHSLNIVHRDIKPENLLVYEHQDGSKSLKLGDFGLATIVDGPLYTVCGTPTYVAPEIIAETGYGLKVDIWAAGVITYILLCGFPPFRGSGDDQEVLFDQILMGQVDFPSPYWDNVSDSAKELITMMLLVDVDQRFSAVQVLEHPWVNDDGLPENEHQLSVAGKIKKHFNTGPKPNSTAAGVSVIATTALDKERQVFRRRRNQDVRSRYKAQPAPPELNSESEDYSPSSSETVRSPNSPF

[14] = molecular target: Serine/threonine-protein kinase PRP4 homolog (Homo sapiens) (UniProt Q13523); conditions: Compound concentration 1000.0 nM
[15] = tested on: Receptor-type tyrosine-protein kinase FLT3 (Homo sapiens), P36888 [D835H]; conditions: Compound concentration 1000.0 nM
[16] = molecular target: Dual specificity protein kinase CLK2 (Homo sapiens) (UniProt P49760); conditions: Compound concentration 1000.0 nM
[17] = molecular target: Ephrin type-A receptor 8 (Homo sapiens) (UniProt P29322); conditions: Compound concentration 1000.0 nM
[18] = molecular target: Mitogen-activated protein kinase kinase kinase 14 (Homo sapiens) (UniProt Q99558); conditions: Compound concentration 1000.0 nM
[19] = molecular target: Tyrosine-protein kinase BTK (Homo sapiens) (UniProt Q06187); conditions: Compound concentration 1000.0 nM
[20] = molecular target: Mitogen-activated protein kinase kinase kinase kinase 4 (Homo sapiens) (UniProt O95819); conditions: Compound concentration 1000.0 nM
Chain of Mitogen-activated protein kinase kinase kinase kinase 4 (Homo sapiens) (O95819 2-1239 limits assumed): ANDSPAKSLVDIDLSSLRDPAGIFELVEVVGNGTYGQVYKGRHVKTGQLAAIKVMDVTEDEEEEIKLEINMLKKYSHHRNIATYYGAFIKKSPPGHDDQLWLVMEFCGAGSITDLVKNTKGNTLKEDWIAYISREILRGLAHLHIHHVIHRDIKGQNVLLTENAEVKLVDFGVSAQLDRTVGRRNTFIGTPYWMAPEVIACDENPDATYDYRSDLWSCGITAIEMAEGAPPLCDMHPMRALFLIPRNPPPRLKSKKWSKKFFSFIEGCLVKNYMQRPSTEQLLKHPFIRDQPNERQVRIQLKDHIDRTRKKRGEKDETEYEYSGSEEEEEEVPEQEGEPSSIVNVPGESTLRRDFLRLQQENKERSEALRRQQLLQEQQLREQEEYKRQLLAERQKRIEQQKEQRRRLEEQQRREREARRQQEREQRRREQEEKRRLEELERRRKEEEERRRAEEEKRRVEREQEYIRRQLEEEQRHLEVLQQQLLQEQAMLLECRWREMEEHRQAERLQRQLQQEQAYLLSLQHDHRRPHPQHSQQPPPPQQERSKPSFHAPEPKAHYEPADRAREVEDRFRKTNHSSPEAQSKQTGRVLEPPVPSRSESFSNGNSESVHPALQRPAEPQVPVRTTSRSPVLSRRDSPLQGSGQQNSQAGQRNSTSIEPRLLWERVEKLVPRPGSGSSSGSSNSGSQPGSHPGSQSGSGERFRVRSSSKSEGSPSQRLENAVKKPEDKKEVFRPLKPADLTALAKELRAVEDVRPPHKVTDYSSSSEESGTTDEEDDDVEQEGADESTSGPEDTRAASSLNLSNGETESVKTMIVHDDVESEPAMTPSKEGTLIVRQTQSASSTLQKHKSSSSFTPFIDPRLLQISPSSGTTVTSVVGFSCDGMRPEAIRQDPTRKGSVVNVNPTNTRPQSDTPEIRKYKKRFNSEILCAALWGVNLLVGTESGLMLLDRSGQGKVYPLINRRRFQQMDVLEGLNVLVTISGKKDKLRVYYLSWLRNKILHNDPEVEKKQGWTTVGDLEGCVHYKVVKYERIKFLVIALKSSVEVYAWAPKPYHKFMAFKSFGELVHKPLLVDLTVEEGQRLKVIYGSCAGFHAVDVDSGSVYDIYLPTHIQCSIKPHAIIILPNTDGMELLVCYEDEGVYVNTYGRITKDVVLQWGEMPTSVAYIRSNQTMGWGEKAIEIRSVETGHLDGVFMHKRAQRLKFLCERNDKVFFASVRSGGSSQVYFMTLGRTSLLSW

[21] = molecular target: Dual specificity mitogen-activated protein kinase kinase 6 (Homo sapiens) (UniProt P52564); conditions: Compound concentration 1000.0 nM
Chain of Dual specificity mitogen-activated protein kinase kinase 6 (Homo sapiens) (P52564 whole entry): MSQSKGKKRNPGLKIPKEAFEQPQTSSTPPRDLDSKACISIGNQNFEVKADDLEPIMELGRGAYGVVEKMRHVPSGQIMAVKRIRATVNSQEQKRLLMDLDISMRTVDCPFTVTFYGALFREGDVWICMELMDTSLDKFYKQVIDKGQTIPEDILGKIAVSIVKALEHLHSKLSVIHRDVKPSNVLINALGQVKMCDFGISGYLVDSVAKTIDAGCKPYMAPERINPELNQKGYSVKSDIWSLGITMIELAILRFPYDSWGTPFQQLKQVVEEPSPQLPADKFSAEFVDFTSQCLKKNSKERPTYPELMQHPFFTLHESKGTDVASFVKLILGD

[22] = molecular target: Serine/threonine-protein kinase RIO1 (Homo sapiens) (UniProt Q9BRS2); conditions: Compound concentration 1000.0 nM
[23] = molecular target: Alpha-1B adrenergic receptor (Homo sapiens) (UniProt P35368); conditions: Compound concentration 10.0 uM
[24] = molecular target: Ephrin type-B receptor 4 (Homo sapiens) (UniProt P54760); conditions: Compound concentration 1000.0 nM
[25] = molecular target: Interleukin-1 receptor-associated kinase 4 (Homo sapiens) (UniProt Q9NWZ3); conditions: Compound concentration 1000.0 nM
[26] = molecular target: T2, 5-hydroxytryptamine receptor 1A (Homo sapiens) (UniProt P08908); conditions: Compound concentration 10.0 uM
T2 sequence (whole entry): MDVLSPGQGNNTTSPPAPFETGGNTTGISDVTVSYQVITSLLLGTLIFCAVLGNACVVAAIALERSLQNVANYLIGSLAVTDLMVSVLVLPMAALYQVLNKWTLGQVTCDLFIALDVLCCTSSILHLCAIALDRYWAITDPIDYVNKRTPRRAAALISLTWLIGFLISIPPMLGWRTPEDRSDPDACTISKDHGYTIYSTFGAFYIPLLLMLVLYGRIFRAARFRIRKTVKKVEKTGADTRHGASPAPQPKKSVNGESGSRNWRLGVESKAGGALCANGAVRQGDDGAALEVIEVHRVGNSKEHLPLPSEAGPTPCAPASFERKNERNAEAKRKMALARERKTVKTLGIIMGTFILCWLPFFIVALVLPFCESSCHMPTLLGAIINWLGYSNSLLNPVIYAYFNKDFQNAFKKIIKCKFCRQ

[27] = molecular target: Serine/threonine-protein kinase TAO1 (Homo sapiens) (UniProt Q7L7X3); conditions: Compound concentration 1000.0 nM
[28] = tested on: Phosphatidylinositol 4,5-bisphosphate 3-kinase catalytic subunit alpha isoform (Homo sapiens), P42336 [I800L]; conditions: Compound concentration 1000.0 nM
[29] = tested on: Receptor-type tyrosine-protein kinase FLT3 (Homo sapiens), P36888 [D835V]; conditions: Compound concentration 1000.0 nM
[30] = molecular target: Ephrin type-A receptor 3 (Homo sapiens) (UniProt P29320); conditions: Compound concentration 1000.0 nM
Chain of Ephrin type-A receptor 3 (Homo sapiens) (P29320 whole entry): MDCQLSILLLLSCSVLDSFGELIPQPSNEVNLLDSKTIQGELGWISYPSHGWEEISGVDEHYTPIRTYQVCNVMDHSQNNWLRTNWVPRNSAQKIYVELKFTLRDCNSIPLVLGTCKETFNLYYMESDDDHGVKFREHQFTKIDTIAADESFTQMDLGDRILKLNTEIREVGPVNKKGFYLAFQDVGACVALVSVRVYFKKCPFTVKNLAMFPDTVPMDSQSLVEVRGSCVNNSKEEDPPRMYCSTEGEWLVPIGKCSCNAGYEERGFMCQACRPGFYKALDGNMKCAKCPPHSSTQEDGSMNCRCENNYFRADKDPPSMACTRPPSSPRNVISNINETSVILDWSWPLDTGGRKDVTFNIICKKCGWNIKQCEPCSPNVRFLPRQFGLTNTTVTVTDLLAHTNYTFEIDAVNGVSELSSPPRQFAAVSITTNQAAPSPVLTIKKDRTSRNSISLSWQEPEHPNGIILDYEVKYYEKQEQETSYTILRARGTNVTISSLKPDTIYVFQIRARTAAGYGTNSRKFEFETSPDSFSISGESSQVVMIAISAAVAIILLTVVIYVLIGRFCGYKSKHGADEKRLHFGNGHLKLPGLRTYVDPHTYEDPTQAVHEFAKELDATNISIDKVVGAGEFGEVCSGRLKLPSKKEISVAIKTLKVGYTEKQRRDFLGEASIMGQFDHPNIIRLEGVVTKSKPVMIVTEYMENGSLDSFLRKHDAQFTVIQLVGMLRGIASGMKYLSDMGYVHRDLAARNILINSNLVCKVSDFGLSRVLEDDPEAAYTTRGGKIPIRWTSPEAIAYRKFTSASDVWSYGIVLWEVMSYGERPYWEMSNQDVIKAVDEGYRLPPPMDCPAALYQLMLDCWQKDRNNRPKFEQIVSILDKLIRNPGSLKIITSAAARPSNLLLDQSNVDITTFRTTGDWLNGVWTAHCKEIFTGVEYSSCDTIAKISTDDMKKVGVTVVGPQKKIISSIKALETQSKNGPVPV

[31] = molecular target: Tyrosine-protein kinase JAK1 (Homo sapiens) (UniProt P23458); conditions: Compound concentration 1000.0 nM
[32] = molecular target: MAP/microtubule affinity-regulating kinase 4 (Homo sapiens) (UniProt Q96L34); conditions: Compound concentration 1000.0 nM

Cn1cncc1[C@@](O)(COc1ccc(C#N)cc1-c1ccc(OC(F)(F)F)cc1)c1ccc(C#N)cc1 [A-108]
inactive: residual activity [1] 90% | residual activity [2] 69% | residual activity [3] 98% | residual activity [4] 81% | residual activity [5] 100% | inhibition [6] 25.8% | residual activity [7] 90% | residual activity [8] 93% | residual activity [9] 100% | residual activity [10] 72% | residual activity [11] 97% | residual activity [12] 100% | residual activity [13] 87% | residual activity [14] 100% | residual activity [15] 67% | residual activity [16] 90% | residual activity [17] 100% | residual activity [18] 92% | residual activity [19] 82% | residual activity [20] 100% | residual activity [21] 94% | residual activity [22] 100% | inhibition [23] 5.97% | residual activity [24] 100% | residual activity [25] 80% | inhibition [26] -6.52% | residual activity [27] 100% | residual activity [28] 84% | residual activity [29] 89% | residual activity [30] 100% | residual activity [31] 100% | residual activity [32] 100%

Cn1cncc1[C@](O)(COc1ccc(C#N)cc1-c1ccc(OC(F)(F)F)cc1)c1ccc(C#N)cc1 [ABT-100]
inactive: residual activity [1] 77% | residual activity [2] 100% | residual activity [3] 55% | residual activity [4] 80% | residual activity [5] 78% | inhibition [6] -4.07% | residual activity [7] 95% | residual activity [8] 100% | residual activity [9] 92% | residual activity [10] 100% | residual activity [11] 100% | residual activity [12] 93% | residual activity [13] 94% | residual activity [14] 100% | residual activity [15] 84% | residual activity [16] 87% | residual activity [17] 72% | residual activity [18] 88% | residual activity [19] 92% | residual activity [20] 100% | residual activity [21] 76% | residual activity [22] 72% | inhibition [23] 16.6% | residual activity [24] 98% | residual activity [25] 75% | inhibition [26] 10.8% | residual activity [27] 87% | residual activity [28] 85% | residual activity [29] 100% | residual activity [30] 90% | residual activity [31] 59% | residual activity [32] 56%
